Tested on: SARS-CoV-2 virus carrying the D614G mutation in the S protein
Assay type: cell-based
Details: read-out: IC50 (µM) SARS-CoV-2 (Vero E6)

SMILES	IC50 [µM]
NCC(=O)NC(CCC(=O)N[C@@H](Cc1c(Sc2ccc([N+](=O)[O-])cc2)[nH]c2ccccc12)C(=O)O)(CCC(=O)N[C@@H](Cc1c(Sc2ccc([N+](=O)[O-])cc2)[nH]c2ccccc12)C(=O)O)CCC(=O)N[C@@H](Cc1c(Sc2ccc([N+](=O)[O-])cc2)[nH]c2ccccc12)C(=O)O [Compound 7a]	3.02
CC(=O)c1ccc(Sc2[nH]c3ccccc3c2C[C@H](NC(=O)CCC(CCC(=O)N[C@@H](Cc2c(Sc3ccc(C(C)=O)cc3)[nH]c3ccccc23)C(=O)O)(CCC(=O)N[C@@H](Cc2c(Sc3ccc(C(C)=O)cc3)[nH]c3ccccc23)C(=O)O)NC(=O)CN)C(=O)O)cc1 [Compound 7c]	13.3
